What is called Ki is a dissociation constant, usually derived from enzyme kinetics or from competition with a known ligand. In general, IC50 refers to the midpoint of a concentration-inhibition curve. Low readings indicate inhibition by little substance, high ones a need for much substance.

“Also recorded” adds a separate entry of the source.

In experiment [1] the target is T1, 5HT2C (Homo sapiens, UniProt P28335).
T1 sequence (P28335 33-458): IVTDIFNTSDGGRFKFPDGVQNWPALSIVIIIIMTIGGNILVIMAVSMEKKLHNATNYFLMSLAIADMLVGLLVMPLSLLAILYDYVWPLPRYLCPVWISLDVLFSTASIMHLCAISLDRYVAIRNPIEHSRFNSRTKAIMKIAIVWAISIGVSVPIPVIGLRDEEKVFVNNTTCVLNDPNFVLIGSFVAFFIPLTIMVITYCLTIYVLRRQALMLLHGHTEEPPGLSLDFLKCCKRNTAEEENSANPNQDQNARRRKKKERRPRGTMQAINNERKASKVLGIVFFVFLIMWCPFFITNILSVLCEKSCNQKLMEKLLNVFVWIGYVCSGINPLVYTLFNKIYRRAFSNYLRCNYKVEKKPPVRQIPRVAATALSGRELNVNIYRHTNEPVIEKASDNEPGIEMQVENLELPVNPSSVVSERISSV
Nature of the experiment: Radioreceptor competition/saturation binding, 5HT2C ([3H]-mesulergine). The conditions noted are these: competitive binding; for nH: Hill slope; for Ki: wild type receptor transiently expressed (FIG. 1: HEK 293 cells). The method, then: (§1) Cells are grown at 37° C. in a humidified incubator with 5% CO2. The cDNAs encoding the human 5-HT2A, 5-HT2B, and 5-HT2C receptors (wild type) are purchased from UMR (Rolla, Mo.) for transient transfection of the clonal cells. For radioreceptor binding assays, 5-HT2A, 5-HT2B, and 5-HT2C receptor membranes are prepared from transfected CHO-K1 cells. For functional assays measuring activity of PLC/IP formation, transfected CHO-K1 cells are used for 5-HT2A and 5-HT2C receptors. […] Twenty-four hours before transfection, cells are seeded at 40% confluence in 100 mm dishes for radioreceptor binding assays or at 10^5 cells per well in 12-well plates for functional assays. CHO-K1 cells are transiently transfected with 12 μg of plasmid and 32 μl of lipofectamine (Invitrogen) per 100 mm dish for radioreceptor binding assays, or, 0.8 μg plasmid and 4.0 μl of lipofectamine per well for functional assays. For 5-HT2B functional assays using HEK cells, 24 μg plasmid DNA is mixed with 60 μl of Lipofectamine 2000 (Invitrogen) to transfect 1-2×10^6 cells in a 10-cm plate. Cells are allowed to express transfected receptors for another 24 hrs (Herrick, 1997).
(§2) Radioreceptor saturation and competition binding assays are performed using membrane homogenates, similar to our methods reported previously for the phylogenetically closely related histamine H1 GPCR (Booth, 2002; Moniri et al., 2004). […] Briefly, forty-eight hours following CHO cell transfection, cells are harvested and homogenized in 50 mM Tris-HCl containing 0.1% ascorbic acid and 4.0 mM CaCl2 at pH 7.4 (assay buffer). The homogenate is centrifuged at 35,000 g for 25 min and the resulting membrane pellet is re-suspended in assay buffer. Protein concentration is determined by the method of Lowry et al. (Lowry, 1951). […] Incubation of radioreceptor binding assay mixtures is for 1.0 h at 37° C., with termination by rapid filtration through Whatman GF/B filters using a 96-well cell harvester (Tomtec, Hamden, Conn.). The membrane-bound [^3H]-radioligand retained on the filter discs is quantified by liquid scintillation spectrometry. Data are analyzed by nonlinear regression using the sigmoidal curve-fitting algorithms in Prism 4.03 (GraphPad Software Inc., San Diego, Calif.). Ligand affinity is expressed as an approximation of Ki values by conversion of the IC50 data to K0.5 values using the equation K0.5=IC50/1+L/KD, where L is the concentration of radioligand having affinity KD (Cheng, 1973).

In experiment [2] the target is T2, 5HT2A (Homo sapiens, UniProt P28223). Description: Radioreceptor competition/saturation binding, 5HT2A ([3H]-ketanserin). The conditions noted are these: competitive binding; for nH: Hill slope; for Ki: wild type receptor transiently expressed (FIG. 1: HEK 293 cells). The method, then: as §1, §2
For experiment [3], the target named is T3, 5HT2B (Homo sapiens, UniProt P41595). Description: Radioreceptor competition/saturation binding, 5HT2B ([3H]-mesulergine). The conditions noted are these: competitive binding; for nH: Hill slope; for Ki: wild type receptor transiently expressed (FIG. 1: HEK 293 cells). The method, then:
as §1, §2

The next experiment has as its target T4, Histamine H1 WT (Homo sapiens, UniProt P35367).
T4 construct: expressed in transfected cells
Description: Competitive binding, histamine H1 receptor. The conditions noted are these: Hill slope. The protocol: as §2

Experiment [4] concerns the target T3, 5HT2B. Description: PLC activity/[3H]-IP formation, 5HT2B. It is filed as cell-based. The protocol:
as §1

The next experiment deals with RSK 1 (Homo sapiens, UniProt Q15418). Nature of the experiment: Kinase affinity panel (labeled tag binding), RSK 1. The conditions noted are these: at 1.0 uM CAT.
The target in experiment [5] is T2, 5HT2A. Nature of the experiment: PLC activity/[3H]-IP formation, 5HT2A. It counts as cell-based. The method, then:
(§3) Cells are grown at 37° C. in a humidified incubator with 5% CO2. The cDNAs encoding the human 5-HT2A, 5-HT2B, and 5-HT2C receptors (wild type) are purchased from UMR (Rolla, Mo.) for transient transfection of the clonal cells. For radioreceptor binding assays, 5-HT2A, 5-HT2B, and 5-HT2C receptor membranes are prepared from transfected CHO-K1 cells. For functional assays measuring activity of PLC/IP formation, transfected CHO-K1 cells are used for 5-HT2A and 5-HT2C receptors. For 5HT2B receptors, however, more robust and consistent results for the PLC/IP assay are obtained using transfected HEK cells (Setola et al., 2005). Twenty-four hours before transfection, cells are seeded at 40% confluence in 100 mm dishes for radioreceptor binding assays or at 10^5 cells per well in 12-well plates for functional assays. CHO-K1 cells are transiently transfected with 12 μg of plasmid and 32 μl of lipofectamine (Invitrogen) per 100 mm dish for radioreceptor binding assays, or, 0.8 μg plasmid and 4.0 μl of lipofectamine per well for functional assays. For 5-HT2B functional assays using HEK cells, 24 μg plasmid DNA is mixed with 60 μl of Lipofectamine 2000 (Invitrogen) to transfect 1-2×10^6 cells in a 10-cm plate. Cells are allowed to express transfected receptors for another 24 hrs (Herrick, 1997).
(§4) Functional activation of PLC is measured as [^3H]-IP formation in CHO cells transiently expressing serotonin 5-HT2C receptors or HEK cells transiently expressing serotonin 5-HT2A or 5-HT2B receptors, as previously reported (Moniri et al., 2004). Briefly, thirty-two hours following transfection, cells in inositol-free Dulbecco's modified Eagle's medium (DMEM) are incubated for twelve hours with 1.0 μCi/ml myo-[2-^3H]-inositol, the radiolabeled precursor of the PLC-β substrate phosphatidylinositol. […]
(§5) Functional activation of PLC is measured as [^3H]-IP formation in CHO cells transiently expressing 5-HT2A or 5-HT2C receptors and HEK cells transiently expressing 5HT2B receptors, as previously reported by our lab (Booth, 2002; Moniri et al., 2004). […]

The test system of a further experiment is 438 other kinases. Description: Kinase affinity panel (labeled tag binding), other kinases. The conditions noted are these: at concentrations up to 1.0 uM.
The next experiment addresses RSK 2 (Homo sapiens, UniProt P51812). Nature of the experiment: Kinase affinity panel (labeled tag binding), RSK 2. The conditions noted are these: at concentrations up to 1.0 uM.
The target of another experiment is RSK 4 (Homo sapiens, UniProt Q9UK32). Description: Kinase affinity panel (labeled tag binding), RSK 4. The conditions noted are these: at 1.0 uM CAT.
The next experiment deals with Histamine H1 receptor (Homo sapiens, UniProt P35367). Nature of the experiment: Histamine H1 receptor-mediated stimulation of PLC activity/[3H]-IP formation. It is filed as cell-based. The conditions noted are these: against histamine activation.
Experiment [6] deals with T1, 5HT2C. Description: PLC activity/[3H]-IP formation, 5HT2C. It counts as cell-based. The method, then:
as §3, §4, §5

For a further experiment, the target named is RSK 3 (Homo sapiens, UniProt Q15349). Nature of the experiment: Kinase affinity panel (labeled tag binding), RSK 3. The conditions noted are these: at 1.0 uM CAT.
For experiment [7], the system named is cocaine self-administration. The conditions noted are these: rat; cited from earlier work.
The target in experiment [8] is T1, 5HT2C. The conditions noted are these: cited from earlier work.
The mark [9] stands for this setting: inhibition of basal (constitutive) [3H]-IP formation.

T2 sequence (P28223 whole entry): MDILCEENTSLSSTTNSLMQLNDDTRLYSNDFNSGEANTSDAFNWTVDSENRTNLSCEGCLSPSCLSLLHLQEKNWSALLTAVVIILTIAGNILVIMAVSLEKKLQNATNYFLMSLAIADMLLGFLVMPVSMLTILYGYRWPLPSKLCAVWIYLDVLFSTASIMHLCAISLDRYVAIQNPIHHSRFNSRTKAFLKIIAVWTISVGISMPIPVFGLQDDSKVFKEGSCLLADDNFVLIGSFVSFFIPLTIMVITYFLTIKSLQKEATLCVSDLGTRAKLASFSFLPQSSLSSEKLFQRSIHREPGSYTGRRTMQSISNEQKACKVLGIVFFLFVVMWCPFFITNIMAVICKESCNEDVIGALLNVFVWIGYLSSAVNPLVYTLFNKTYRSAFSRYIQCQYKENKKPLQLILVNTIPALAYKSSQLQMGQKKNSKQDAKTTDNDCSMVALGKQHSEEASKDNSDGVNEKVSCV
T3 sequence (P41595 whole entry): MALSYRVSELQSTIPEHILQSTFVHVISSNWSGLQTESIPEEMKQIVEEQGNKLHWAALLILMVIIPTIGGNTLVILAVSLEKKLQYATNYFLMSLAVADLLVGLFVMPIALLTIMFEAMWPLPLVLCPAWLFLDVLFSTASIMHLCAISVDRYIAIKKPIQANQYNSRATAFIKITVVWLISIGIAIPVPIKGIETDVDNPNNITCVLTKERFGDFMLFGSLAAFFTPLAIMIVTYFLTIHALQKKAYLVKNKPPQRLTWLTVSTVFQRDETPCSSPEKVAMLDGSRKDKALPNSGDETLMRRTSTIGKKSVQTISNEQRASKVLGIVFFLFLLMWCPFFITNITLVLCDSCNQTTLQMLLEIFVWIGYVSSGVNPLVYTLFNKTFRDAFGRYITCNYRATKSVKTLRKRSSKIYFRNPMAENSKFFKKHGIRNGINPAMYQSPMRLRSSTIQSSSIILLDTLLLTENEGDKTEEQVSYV
Histamine H1 receptor, sequence (P35367 whole entry): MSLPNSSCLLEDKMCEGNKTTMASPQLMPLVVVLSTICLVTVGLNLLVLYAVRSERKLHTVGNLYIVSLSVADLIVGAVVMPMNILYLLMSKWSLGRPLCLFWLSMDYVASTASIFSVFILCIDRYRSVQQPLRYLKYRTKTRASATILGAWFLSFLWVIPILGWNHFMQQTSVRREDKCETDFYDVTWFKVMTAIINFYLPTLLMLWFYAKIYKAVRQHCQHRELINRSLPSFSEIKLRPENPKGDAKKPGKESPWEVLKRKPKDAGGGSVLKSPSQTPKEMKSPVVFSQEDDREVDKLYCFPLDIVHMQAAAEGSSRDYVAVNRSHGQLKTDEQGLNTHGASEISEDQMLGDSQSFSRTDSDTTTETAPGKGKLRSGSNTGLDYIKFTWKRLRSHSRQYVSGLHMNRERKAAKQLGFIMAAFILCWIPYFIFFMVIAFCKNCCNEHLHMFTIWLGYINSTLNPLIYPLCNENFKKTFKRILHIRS
T4 sequence (P35367 whole entry): as above
RSK 3, sequence (Q15349 whole entry): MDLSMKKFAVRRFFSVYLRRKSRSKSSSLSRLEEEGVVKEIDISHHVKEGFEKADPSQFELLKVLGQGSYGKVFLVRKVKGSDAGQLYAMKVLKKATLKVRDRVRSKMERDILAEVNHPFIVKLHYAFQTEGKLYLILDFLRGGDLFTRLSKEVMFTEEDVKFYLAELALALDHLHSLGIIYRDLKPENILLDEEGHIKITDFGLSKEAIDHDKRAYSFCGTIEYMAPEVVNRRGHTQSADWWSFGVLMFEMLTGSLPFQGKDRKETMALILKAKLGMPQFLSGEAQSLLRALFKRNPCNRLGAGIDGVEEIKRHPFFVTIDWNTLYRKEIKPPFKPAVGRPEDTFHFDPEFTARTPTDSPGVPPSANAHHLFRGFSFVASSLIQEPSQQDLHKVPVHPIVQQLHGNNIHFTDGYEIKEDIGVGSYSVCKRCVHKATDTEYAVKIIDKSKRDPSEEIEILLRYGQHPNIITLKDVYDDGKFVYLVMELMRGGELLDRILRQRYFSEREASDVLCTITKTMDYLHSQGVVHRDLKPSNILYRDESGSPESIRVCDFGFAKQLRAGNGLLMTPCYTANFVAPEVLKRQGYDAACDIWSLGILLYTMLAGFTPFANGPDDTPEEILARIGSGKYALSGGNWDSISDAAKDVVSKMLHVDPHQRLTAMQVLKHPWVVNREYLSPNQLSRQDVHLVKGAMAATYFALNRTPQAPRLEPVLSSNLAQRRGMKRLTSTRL
RSK 1, sequence (Q15418 whole entry): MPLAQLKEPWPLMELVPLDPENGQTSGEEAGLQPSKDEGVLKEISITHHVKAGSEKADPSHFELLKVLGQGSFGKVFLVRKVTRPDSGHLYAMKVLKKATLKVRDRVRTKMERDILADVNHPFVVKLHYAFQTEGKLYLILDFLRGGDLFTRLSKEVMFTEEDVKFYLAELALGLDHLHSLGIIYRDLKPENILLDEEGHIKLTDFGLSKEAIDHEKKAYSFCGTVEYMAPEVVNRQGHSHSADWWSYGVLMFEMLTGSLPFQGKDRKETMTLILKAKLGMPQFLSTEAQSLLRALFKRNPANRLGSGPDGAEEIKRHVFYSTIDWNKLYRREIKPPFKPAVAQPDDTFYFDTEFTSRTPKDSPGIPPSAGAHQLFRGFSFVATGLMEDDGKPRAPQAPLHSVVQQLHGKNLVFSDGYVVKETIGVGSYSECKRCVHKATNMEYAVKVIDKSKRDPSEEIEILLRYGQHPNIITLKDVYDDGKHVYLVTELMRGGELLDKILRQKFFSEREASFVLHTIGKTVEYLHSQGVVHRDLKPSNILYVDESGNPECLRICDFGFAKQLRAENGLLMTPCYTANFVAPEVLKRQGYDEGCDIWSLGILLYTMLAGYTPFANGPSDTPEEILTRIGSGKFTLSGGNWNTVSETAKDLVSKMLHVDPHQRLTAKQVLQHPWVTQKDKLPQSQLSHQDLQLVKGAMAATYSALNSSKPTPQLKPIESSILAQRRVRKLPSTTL
RSK 2, sequence (P51812 whole entry): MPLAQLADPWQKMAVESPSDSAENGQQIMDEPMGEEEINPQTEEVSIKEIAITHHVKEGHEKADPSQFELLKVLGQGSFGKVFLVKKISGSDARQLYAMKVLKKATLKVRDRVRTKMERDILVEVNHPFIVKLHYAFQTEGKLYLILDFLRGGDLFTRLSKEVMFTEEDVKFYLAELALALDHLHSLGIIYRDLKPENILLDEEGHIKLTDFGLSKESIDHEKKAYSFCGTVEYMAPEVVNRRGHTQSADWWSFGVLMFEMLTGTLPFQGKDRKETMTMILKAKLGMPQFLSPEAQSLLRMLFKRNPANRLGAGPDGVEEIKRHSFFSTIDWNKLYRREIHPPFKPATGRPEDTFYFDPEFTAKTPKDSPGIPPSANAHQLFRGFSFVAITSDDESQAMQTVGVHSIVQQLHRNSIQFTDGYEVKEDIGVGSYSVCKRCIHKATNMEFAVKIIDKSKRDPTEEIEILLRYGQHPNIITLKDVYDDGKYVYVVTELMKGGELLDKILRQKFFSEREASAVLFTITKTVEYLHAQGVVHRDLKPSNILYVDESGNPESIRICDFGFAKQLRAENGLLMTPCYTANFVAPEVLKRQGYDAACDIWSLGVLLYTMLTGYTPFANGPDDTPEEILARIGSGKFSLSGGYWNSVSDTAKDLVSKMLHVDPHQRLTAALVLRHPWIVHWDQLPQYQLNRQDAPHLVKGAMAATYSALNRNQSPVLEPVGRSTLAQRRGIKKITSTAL
RSK 4, sequence (Q9UK32 whole entry): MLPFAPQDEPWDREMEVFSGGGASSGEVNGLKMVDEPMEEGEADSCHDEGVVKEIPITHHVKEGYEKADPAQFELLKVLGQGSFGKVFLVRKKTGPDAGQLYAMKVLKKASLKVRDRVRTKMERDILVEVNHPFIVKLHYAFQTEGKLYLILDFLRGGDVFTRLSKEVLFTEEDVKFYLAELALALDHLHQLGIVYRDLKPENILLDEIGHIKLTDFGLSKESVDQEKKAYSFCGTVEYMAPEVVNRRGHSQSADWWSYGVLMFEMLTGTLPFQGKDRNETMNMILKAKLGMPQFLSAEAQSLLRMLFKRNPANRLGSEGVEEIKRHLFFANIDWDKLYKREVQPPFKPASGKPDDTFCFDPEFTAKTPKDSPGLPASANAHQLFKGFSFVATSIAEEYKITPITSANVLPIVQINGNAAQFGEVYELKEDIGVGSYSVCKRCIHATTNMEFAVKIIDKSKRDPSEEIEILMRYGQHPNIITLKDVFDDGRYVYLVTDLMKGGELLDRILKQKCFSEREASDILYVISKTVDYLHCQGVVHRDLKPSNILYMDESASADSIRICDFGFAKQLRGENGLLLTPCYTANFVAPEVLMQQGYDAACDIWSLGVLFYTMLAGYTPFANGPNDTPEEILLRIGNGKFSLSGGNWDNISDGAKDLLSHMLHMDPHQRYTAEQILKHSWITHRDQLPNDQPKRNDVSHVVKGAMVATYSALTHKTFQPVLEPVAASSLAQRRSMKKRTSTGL

For the compound `CN(C)[C@H]1Cc2ccccc2[C@H](C2CCCCC2)C1` [(+)-trans-CAT, (+)-(2R,4S)-4-cyclohexyl-N,Ndimethyl-1,2,3,4-tetrahydronaphthalen-2-amine], the nH was determined as 1.20 ± 0.26 at 5HT2C [1], 0.77 ± 0.20 at 5HT2A [2], 0.75 ± 0.12 on 5HT2B [3] and 1.02 ± 0.00 on Histamine H1 WT. For the same compound, the inhibitory constant (Ki) worked out at 28.9 ± 4.4 nM on 5HT2C [1], 78.2 ± 4 nM at 5HT2A [2] and 1010 ± 140 nM at 5HT2B [3].
In the case of `CN(C)[C@@H]1Cc2ccccc2[C@@H](C2CCCCC2)C1` [(−)-trans-CAT, (−)-(2S,4R)-4-cyclohexyl-N,N-dimethyl-1,2,3,4-tetrahydronaphthalen-2-amine], the “Kind of functional activity, PLC activity/IP formation” value on 5HT2B [4], on 5HT2A [5] and at 5HT2C [6] was “inverse agonist” each time. The figures for the “PLC/IP formation IMAX” value at 5HT2B [4], at 5HT2A [5] and at 5HT2C [6] were 56.80 ± 2.13 % Basal, 48.45 ± 5.50 % Basal and 60.65 ± 2.94 % Basal, respectively. Besides, the IC50 against 5HT2B [4] (setting [9]) turned out to be 250 ± 30 nM; at 5HT2A [5] (setting [9]) it was 130 ± 20 nM; at 5HT2C [6] (setting [9]), 190 ± 40 nM. In addition, the nH was found to be 1.13 ± 0.18 on 5HT2C [1], 1.26 ± 0.01 on 5HT2A [2], 0.81 ± 0.02 on 5HT2B [3] and 1.01 ± 0.05 on Histamine H1 WT. Moreover, the Ki was found to be 13.7 ± 2.17 nM at 5HT2C [1], 1.61 ± 0.05 nM on 5HT2A [2] and 23.7 ± 0.79 nM at 5HT2B [3]. For the same compound, the “inhibition of tag binding” value on RSK 1 came to 20%. In addition, in the experiment with 438 other kinases, the “binding to 438 other kinases” value is reported as “did not exhibit as significant binding”. Further, at RSK 2, the “binding to RSK 2” value was “did not exhibit similarly significant binding”. The “inhibition of labeled tag binding” value on RSK 4 and at RSK 3 was 80% throughout. The “PLC/IP formation, kind of activity at H1” value at Histamine H1 receptor is given as “competitively antagonized; also recorded: Competitive”.
As for `COc1cccc([C@H](O)C2CCN(CCc3ccc(F)cc3)CC2)c1OC` [M100907], in [7], the “rate of cocaine self-administration” value is “does not alter responding rate”.
For `Cc1cc2c(cc1Cl)N(C(=O)Nc1ccc(Oc3cccnc3C)nc1)CC2` [SB242084], in experiment [7], the “rate of cocaine self-administration” value is on record as “increases the rate of cocaine self-administration dose-dependently”.
For `C[C@H]1CNCCc2ccc(Cl)cc21` [lorcaserin, Lorcaserin], the “selectivity for activation of 5HT2C receptors over 5HT2A receptors” value at 5HT2C [8] is 15 fold.

Values taken from patent US9024071B2, “Therapeutic compounds” (University of Florida Research Foundation, Inc., priority 2009, dated 2015).
